≈ marks a conversion by molar mass, not a printed value. Where a SMILES comes first, the peptide text is derived from it. Bridges are numbered along the chain shown (N, C = ends). [ ]: non-standard residue; d: D form. The star is where a group is joined. Pentadecanoyl = CCCCCCCCCCCCCCC(=O)*; Tridecanoyl = CCCCCCCCCCCCC(=O)*; dOrn = NCCC[C@@H](N)C(=O)O
Columns and labels:
[1] = test system: S. aureus 12; assay: microbe, parasite or virus in culture; type: cell-based, Staphylococcus aureus; settings: 12
Text: (§1) The same MIC assay as in Example 6 was used to determine the antimicrobial susceptibility of Compound A, L-form (FIG. 15), and several variants. One variant was Compound A, D-form, with D-Lysine at position 7. Compound B is a variant in the fatty acid chain, with a fatty acid chain composition of C15H29O, and having D-Lys at position 7. Compound C is a variant in the fatty acid chain with a fatty acid chain composition of C11H21O, and having D-Lys at position 7. Variant D is a sequence variant with Phe at position 6 of the cyclic peptide, and having D-Lys at position 7. All variants were chemically synthesized.

[2] = test system: S. aureus 2; assay: microbe, parasite or virus in culture; type: cell-based, Staphylococcus aureus; settings: 2
Text: as §1

[3] = test system: S. aureus 8; assay: microbe, parasite or virus in culture; type: cell-based, Staphylococcus aureus; settings: 8
Text: as §1

[4] = test system: S. aureus 14; assay: microbe, parasite or virus in culture; type: cell-based, Staphylococcus aureus; settings: 14
Text: as §1

[5] = test system: S. aureus 19; assay: microbe, parasite or virus in culture; type: cell-based, Staphylococcus aureus; settings: 19
Text: as §1

[6] = test system: S. aureus 10; assay: microbe, parasite or virus in culture; type: cell-based, Staphylococcus aureus; settings: 10
Text: as §1

[7] = test system: S. aureus 4; assay: microbe, parasite or virus in culture; type: cell-based, Staphylococcus aureus; settings: 4
Text: as §1

[8] = test system: S. aureus 6; assay: microbe, parasite or virus in culture; type: cell-based, Staphylococcus aureus; settings: 6
Text: as §1

[9] = test system: S. Bareilly CVM40145 (ACC-1); type: cell-based, Salmonella
Text: as §1

[10] = test system: S. Keur massar CVM 40135 (shv12); type: cell-based, Salmonella
Text: as §1

[11] = test system: S. Typhimurium CVM 40117 (ctx-m-5); type: cell-based, Salmonella
Text: as §1

[12] = test system: S. Newport CVM 40115 (cmy 2); type: cell-based, Salmonella
Text: as §1

[13] = test system: S. Heidelberg CVM 40140 (cmy-2); type: cell-based, Salmonella
Text: as §1

[14] = test system: Salmonella CVM 40118 (oxa-1); type: cell-based
Text: as §1

[15] = test system: Serratia marcescens SAMN 04276914; type: cell-based; settings: SAMN 04276914
Text: as §1

[16] = test system: Enterobacter cloacae SBJ-9395; type: cell-based; settings: SBJ-9395
Text: as §1

[17] = test system: Salmonella CVM 1290 (cmy2); type: cell-based
Text: as §1

[18] = test system: Salmonella CVM 40119 (tem 12); type: cell-based
Text: as §1

[19] = test system: Serratia marcescens SAMN04022954; type: cell-based; settings: SAMN04022954
Text: as §1

[20] = test system: Serratia marcescens SBJ-9047; type: cell-based; settings: SBJ-9047
Text: as §1

[21] = test system: Serratia marcescens SAMN 04276915; type: cell-based; settings: SAMN 04276915
Text: as §1

[22] = test system: Serratia marcescens SBJ-8283; type: cell-based; settings: SBJ-8283
Text: as §1

[23] = test system: E. coli CVM 40137 (DHA-1); type: cell-based, Escherichia coli
Text: as §1

[24] = test system: E. coli CVM 40141 (imp-1); type: cell-based, Escherichia coli
Text: as §1

[25] = test system: E. coli CVM40148 (veb-1); type: cell-based, Escherichia coli
Text: as §1

[26] = test system: E. coli CVM 40127 (oxa-2); type: cell-based, Escherichia coli
Text: as §1

[27] = test system: E. coli CVM 15104 (shv3); type: cell-based, Escherichia coli
Text: as §1

[28] = test system: E. coli CVM 40139 (fox-1); type: cell-based, Escherichia coli
Text: as §1

[29] = test system: E. coli CVM 15103 (tem2); type: cell-based, Escherichia coli
Text: as §1

[30] = test system: E. cloacae CVM 15101 (P99); type: cell-based, Enterobacter cloacae
Text: as §1

[31] = test system: P. aeruginosa CVM 40144 (PER-1); type: cell-based, Pseudomonas aeruginosa
Text: as §1

[32] = test system: E. faecalis ATCC 51575; assay: microbe, parasite or virus in culture; type: cell-based, Enterococcus faecalis; settings: ATCC 51575
Text: as §1

[33] = test system: E. faecalis BAA-2365; assay: microbe, parasite or virus in culture; type: cell-based, Enterococcus faecalis; settings: BAA-2365
Text: as §1

[34] = test system: E. faecium ATCC 700221; assay: microbe, parasite or virus in culture; type: cell-based; settings: ATCC 700221
Text: as §1

[35] = test system: E. faecium ATCC 2320; assay: microbe, parasite or virus in culture; type: cell-based; settings: ATCC 2320
Text: as §1

[36] = test system: E. faecium BAA-2318; assay: microbe, parasite or virus in culture; type: cell-based; settings: BAA-2318
Text: as §1

[37] = test system: K. pneumonia CVM 15105 (shv5); type: cell-based, Klebsiella pneumoniae
Text: as §1

[38] = test system: K. pneumoniae CVM 9246 (shv18, oxa2); type: cell-based, Klebsiella pneumoniae
Text: as §1

[39] = test system: K. pneumonia CVM 40142 (ges-1); type: cell-based, Klebsiella pneumoniae
Text: as §1

[40] = test system: K. pneumoniae CVM 15102 (shv5); type: cell-based, Klebsiella pneumoniae
Text: as §1

Row | Structure (SMILES) | MIC [9] | MIC [10] | MIC [11] | MIC [12] | MIC [13] | MIC [14] | MIC [15] | MIC [17] | MIC [18] | MIC [19] | MIC [21] | MIC [23] | MIC [24] | MIC [25] | MIC [26] | MIC [27] | MIC [28] | MIC [29] | MIC [30] | MIC [31] | further results
1 | CCCCCCCCCCCCCCC(=O)N[C@H](CCCN)C(=O)N[C@H](C(=O)N[C@@H]1C(=O)N[C@H](CCCN)C(=O)N[C@@H](CO)C(=O)N[C@@H](Cc2ccc(O)cc2)C(=O)N[C@H](CCCCN)C(=O)N[C@H](CO)C(=O)N[C@@H]([C@@H](C)CC)C(=O)N2CCC[C@H]2C(=O)N[C@@H]([C@@H](C)CC)C(=O)N2CCC[C@H]2C(=O)N[C@@H]([C@@H](C)CC)C(=O)O[C@@H]1C)C(C)C [Compound B] (Pentadecanoyl-[dOrn]VT[dOrn]SY[dK][dS]IPIPI; ester 3-C; N-terminus assumed) | 32 µg/mL (≈ 19.4 µM) | 32 µg/mL (≈ 19.4 µM) | 16 µg/mL (≈ 9.68 µM) | 16 µg/mL (≈ 9.68 µM) | 16 µg/mL (≈ 9.68 µM) | 4 µg/mL (≈ 2.42 µM) | 64 µg/mL (≈ 38.7 µM) | 16 µg/mL (≈ 9.68 µM) | 8 µg/mL (≈ 4.84 µM) | ≥128 µg/mL | ≥128 µg/mL | 16 µg/mL (≈ 9.68 µM) | 16 µg/mL (≈ 9.68 µM) | 8 µg/mL (≈ 4.84 µM) | 16 µg/mL (≈ 9.68 µM) | 16 µg/mL (≈ 9.68 µM) | 16 µg/mL (≈ 9.68 µM) | 8 µg/mL (≈ 4.84 µM) | 8 µg/mL (≈ 4.84 µM) | 32 µg/mL (≈ 19.4 µM) | MIC [1]: 4 µg/mL (≈ 2.42 µM); MIC [2]: 4 µg/mL (≈ 2.42 µM); MIC [3]: 4 µg/mL (≈ 2.42 µM); MIC [4]: 4 µg/mL (≈ 2.42 µM); MIC [5]: 4 µg/mL (≈ 2.42 µM); MIC [6]: 4 µg/mL (≈ 2.42 µM); MIC [7]: 4 µg/mL (≈ 2.42 µM); MIC [8]: 8 µg/mL (≈ 4.84 µM); MIC [16]: 16 µg/mL (≈ 9.68 µM); MIC [20]: ≥128 µg/mL; MIC [22]: 32 µg/mL (≈ 19.4 µM); MIC [32]: 8 µg/mL (≈ 4.84 µM); MIC [33]: 4 µg/mL (≈ 2.42 µM); MIC [34]: 4 µg/mL (≈ 2.42 µM); MIC [35]: 4 µg/mL (≈ 2.42 µM); MIC [36]: 4 µg/mL (≈ 2.42 µM); MIC [37]: 16 µg/mL (≈ 9.68 µM); MIC [38]: 8 µg/mL (≈ 4.84 µM); MIC [39]: 16 µg/mL (≈ 9.68 µM); MIC [40]: 8 µg/mL (≈ 4.84 µM)
2 | CCCCCCCCCCCCC(=O)N[C@H](CCCN)C(=O)N[C@H](C(=O)N[C@@H]1C(=O)N[C@H](CCCN)C(=O)N[C@@H](CO)C(=O)N[C@@H](Cc2ccc(O)cc2)C(=O)N[C@@H](CCCCN)C(=O)N[C@H](CO)C(=O)N[C@@H]([C@@H](C)CC)C(=O)N2CCC[C@H]2C(=O)N[C@@H]([C@@H](C)CC)C(=O)N2CCC[C@H]2C(=O)N[C@@H]([C@@H](C)CC)C(=O)O[C@@H]1C)C(C)C [Compound A L-form] (Tridecanoyl-[dOrn]VT[dOrn]SYK[dS]IPIPI; ester 3-C) | 16 µg/mL (≈ 9.85 µM) | 16 µg/mL (≈ 9.85 µM) | 8 µg/mL (≈ 4.93 µM) | 8 µg/mL (≈ 4.93 µM) | 16 µg/mL (≈ 9.85 µM) | 4 µg/mL (≈ 2.46 µM) | 64 µg/mL (≈ 39.4 µM) | 8 µg/mL (≈ 4.93 µM) | 8 µg/mL (≈ 4.93 µM) | ≥128 µg/mL | ≥128 µg/mL | 8 µg/mL (≈ 4.93 µM) | 32 µg/mL (≈ 19.7 µM) | 8 µg/mL (≈ 4.93 µM) | 8 µg/mL (≈ 4.93 µM) | 8 µg/mL (≈ 4.93 µM) | 8 µg/mL (≈ 4.93 µM) | 8 µg/mL (≈ 4.93 µM) | 8 µg/mL (≈ 4.93 µM) | 32 µg/mL (≈ 19.7 µM) | MIC [32]: 8 µg/mL (≈ 4.93 µM); MIC [33]: 8 µg/mL (≈ 4.93 µM); MIC [34]: 4 µg/mL (≈ 2.46 µM); MIC [35]: 4 µg/mL (≈ 2.46 µM); MIC [36]: 4 µg/mL (≈ 2.46 µM); MIC [37]: 8 µg/mL (≈ 4.93 µM); MIC [38]: 8 µg/mL (≈ 4.93 µM); MIC [39]: 8 µg/mL (≈ 4.93 µM); MIC [40]: 8 µg/mL (≈ 4.93 µM)

Source: patent US10906940B2, “Antimicrobial peptides, pharmaceutical compositions, and methods of use thereof” (priority 2014, dated 2021)
